Data taken from PMC11923636, “Synthesis, Pharmacological Evaluation, and Molecular Modeling of Phthalimide Derivatives as Monoamine Oxidase and Cholinesterase Dual Inhibitors” (ACS Omega, 2025).
“And” between values parts separate entries of the source, which are not always exact repeats. Equal entries are not always repeated. Marks after values point to notes of the source that are not given here.

Legend:
AChE = conditions: cited from earlier work
[1] = biological target: T1, equine serum lyophilized BChE (Equus caballus, UniProt P81908); assay: biochemical; conditions: mean ± SEM, n = 3; read-out: IC50 (μM) ± SEM eqBChE
T1 construct: Equine Serum lyophilized BChE; from tissue; host or cells: equine serum
T1 sequence (P81908 whole entry): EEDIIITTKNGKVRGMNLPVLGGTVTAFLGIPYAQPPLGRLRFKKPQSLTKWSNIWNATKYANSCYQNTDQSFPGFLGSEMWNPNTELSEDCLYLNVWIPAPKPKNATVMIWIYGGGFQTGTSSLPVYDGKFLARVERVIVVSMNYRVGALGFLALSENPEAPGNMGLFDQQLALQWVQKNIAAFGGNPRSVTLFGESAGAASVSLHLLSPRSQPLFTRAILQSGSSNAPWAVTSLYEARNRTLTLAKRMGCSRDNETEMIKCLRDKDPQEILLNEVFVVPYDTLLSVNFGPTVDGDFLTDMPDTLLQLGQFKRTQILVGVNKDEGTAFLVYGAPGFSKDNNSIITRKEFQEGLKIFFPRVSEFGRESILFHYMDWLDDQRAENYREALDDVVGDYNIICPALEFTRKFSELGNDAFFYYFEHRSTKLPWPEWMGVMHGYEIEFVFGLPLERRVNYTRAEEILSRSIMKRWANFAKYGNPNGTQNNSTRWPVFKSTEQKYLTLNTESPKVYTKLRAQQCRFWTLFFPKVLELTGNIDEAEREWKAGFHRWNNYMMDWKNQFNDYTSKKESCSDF
Description: (§1) The synthesized compounds were evaluated for their inhibition potential against cholinesterases (Electrophorus electricus AChE and equine serum lyophilized BChE).
(§2) The cholinesterase in vitro bioassay for the synthesized compounds was performed using already reported protocols.[29],[30] Ellman’s assay method was used to study the inhibition of Electrophorus electricus AChE and Equine Serum lyophilized BChE. Stock solutions of synthesized compounds were prepared in potassium phosphate buffer (pH 8.0). A sufficient amount of 5,5-dithio-bis-2-nitrobenzoic acid (DTNB, Ellman’s reagent), a stock solution of synthesized compounds, and 0.03 U/ml of the enzyme (AChE or BChE) were added to a 96-well plate and incubated at 30 °C for 10 min. Subsequently, 1 mM ATCI or BTCI was added, and the reaction mixture was incubated for 15 min. […] Sample concentration was plotted against inhibitory activity to obtain IC50 values.

[2] = biological target: Electrophorus electricus AChE (Electrophorus electricus, UniProt O42275); assay: biochemical; format: biochemical; conditions: for IC50: mean ± SEM, n = 3, read-out: IC50 (μM) ± SEM eeAChE; for SI = IC50 of BChE/IC50 of AChE: selectivity index
Electrophorus electricus AChE, sequence (O42275 24-633): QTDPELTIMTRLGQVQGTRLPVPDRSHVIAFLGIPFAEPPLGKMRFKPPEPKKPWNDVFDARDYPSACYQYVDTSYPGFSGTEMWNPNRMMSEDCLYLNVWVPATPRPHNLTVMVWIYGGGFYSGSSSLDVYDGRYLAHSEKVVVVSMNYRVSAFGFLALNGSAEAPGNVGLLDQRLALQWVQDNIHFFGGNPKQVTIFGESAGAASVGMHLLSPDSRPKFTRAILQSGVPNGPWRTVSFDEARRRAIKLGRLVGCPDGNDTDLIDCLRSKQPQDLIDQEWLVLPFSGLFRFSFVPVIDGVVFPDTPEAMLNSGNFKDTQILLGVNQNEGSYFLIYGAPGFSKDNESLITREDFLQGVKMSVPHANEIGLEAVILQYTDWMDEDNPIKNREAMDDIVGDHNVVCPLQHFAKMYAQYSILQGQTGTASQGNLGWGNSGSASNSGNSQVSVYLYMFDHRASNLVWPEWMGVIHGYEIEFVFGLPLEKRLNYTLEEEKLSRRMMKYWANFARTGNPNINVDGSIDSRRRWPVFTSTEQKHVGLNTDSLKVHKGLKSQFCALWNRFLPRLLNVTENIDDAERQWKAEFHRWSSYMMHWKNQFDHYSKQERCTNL
Description: as §1, §2

human MAO-B = biological target: T2, human MAO-B (Homo sapiens, UniProt P27338); assay: Human MAO isoform inhibition assay (fluorometric), MAO-B; format: biochemical; conditions: for IC50: mean ± SEM, n = 3, read-out: IC50 (μM) ± SEM hMAO-B; for SI (IC50 hMAO-A/IC50 hMAO-B): selectivity index
T2 sequence (P27338 1-520): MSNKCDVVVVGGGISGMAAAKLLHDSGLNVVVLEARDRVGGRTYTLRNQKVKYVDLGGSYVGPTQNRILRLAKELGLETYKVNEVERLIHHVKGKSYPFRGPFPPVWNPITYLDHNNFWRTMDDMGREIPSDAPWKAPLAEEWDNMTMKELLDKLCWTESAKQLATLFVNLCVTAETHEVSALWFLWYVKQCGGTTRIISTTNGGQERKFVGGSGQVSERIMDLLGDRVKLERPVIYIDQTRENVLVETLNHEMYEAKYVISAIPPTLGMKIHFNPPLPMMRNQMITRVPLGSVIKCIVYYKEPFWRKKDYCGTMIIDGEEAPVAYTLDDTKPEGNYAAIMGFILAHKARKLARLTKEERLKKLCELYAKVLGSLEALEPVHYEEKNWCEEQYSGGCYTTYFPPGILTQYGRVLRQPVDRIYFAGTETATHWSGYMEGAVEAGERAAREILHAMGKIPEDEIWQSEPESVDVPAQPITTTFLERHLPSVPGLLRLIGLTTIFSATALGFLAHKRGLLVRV
Description: (§3) The human MAO isoform assay was also carried out using a fluorescence-based assay protocol according to the reported literature.
(§4) Inhibitory activity of the synthesized compounds against MAO isoforms, specifically human MAO-A and MAO-B, was determined by using benzylamine and tyramine substrates in the dark (protected from light) in a 96-well plate by an already reported fluorometric method.[31],[32]

human MAO-A = biological target: T3, human MAO-A (Homo sapiens, UniProt P21397); assay: Human MAO isoform inhibition assay (fluorometric), MAO-A; format: biochemical; conditions: mean ± SEM, n = 3; read-out: IC50 (μM) ± SEM hMAO-A
T3 sequence (P21397 1-527): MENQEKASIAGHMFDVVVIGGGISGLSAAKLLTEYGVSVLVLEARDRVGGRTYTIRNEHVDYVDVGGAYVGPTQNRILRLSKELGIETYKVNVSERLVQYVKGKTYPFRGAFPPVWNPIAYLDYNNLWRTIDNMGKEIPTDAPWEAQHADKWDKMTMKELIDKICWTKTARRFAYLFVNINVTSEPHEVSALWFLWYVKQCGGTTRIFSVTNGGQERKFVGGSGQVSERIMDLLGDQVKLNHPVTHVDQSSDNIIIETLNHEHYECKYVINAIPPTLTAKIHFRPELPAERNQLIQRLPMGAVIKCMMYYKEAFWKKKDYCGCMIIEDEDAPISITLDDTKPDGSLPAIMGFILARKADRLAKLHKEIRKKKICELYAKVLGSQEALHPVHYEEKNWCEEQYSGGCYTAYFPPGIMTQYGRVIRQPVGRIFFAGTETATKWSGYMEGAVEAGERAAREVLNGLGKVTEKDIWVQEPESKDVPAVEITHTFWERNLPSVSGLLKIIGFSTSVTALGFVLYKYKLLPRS
Description: as §3, §4

[3] = tested on: SH-SY5Y neuroblastoma cells; format: cell-based; conditions: MTT
Description: To determine the biological safety of the synthesized compounds, we performed a cytotoxicity study using a human SH-SY5Y neuroblastoma cell line.
SH-SY5Y cells were cultured in 96-well plates (1 × 10^5 cells/well) in a medium containing fetal bovine serum (FBS), penicillin (100 U/ml), and streptomycin ([…]) at 37 °C and 5% CO2. […] Subsequently, synthesized compounds were added to cells, followed by the addition of 20 μL of MTT reagent (10 mg/mL) at the specified time. Plates were then incubated at 37 °C and 5% CO2, and purple color precipitate formation was observed by a microscope. Lastly, DMSO ([…]) was added to solubilize precipitates, and the plates were read at 570 nm to determine the cell viability. Results are expressed as percentage growth of cells, in which their viability is compared to control cells in the presence or absence of synthesized compounds and a standard. The following formula was utilized for the measurement of the % cell viability. [drawing 1]

mice brain MAO-B = biological target: T4, mice brain MAO-B (Mus musculus, UniProt Q8BW75); assay: Ex vivo MAO-B inhibition reversibility time course; format: in vivo, ICR mice; conditions: single ip dose
T4 construct: from tissue; host or cells: ICR mouse brain homogenate pellet
T4 sequence (Q8BW75 1-520): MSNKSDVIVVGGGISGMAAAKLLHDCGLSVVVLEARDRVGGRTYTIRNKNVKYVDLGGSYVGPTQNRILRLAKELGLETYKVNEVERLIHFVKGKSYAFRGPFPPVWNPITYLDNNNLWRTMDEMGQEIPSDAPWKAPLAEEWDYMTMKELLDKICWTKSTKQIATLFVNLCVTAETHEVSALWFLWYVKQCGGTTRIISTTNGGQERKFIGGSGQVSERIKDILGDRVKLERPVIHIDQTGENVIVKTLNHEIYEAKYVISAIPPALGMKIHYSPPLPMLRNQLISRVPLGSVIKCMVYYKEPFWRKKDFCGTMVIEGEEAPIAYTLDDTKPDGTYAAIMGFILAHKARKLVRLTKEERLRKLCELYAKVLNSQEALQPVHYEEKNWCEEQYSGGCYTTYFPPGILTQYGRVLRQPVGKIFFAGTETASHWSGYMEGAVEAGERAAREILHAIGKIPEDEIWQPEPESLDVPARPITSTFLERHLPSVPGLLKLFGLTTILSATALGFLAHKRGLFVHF
Description: After the experiments, the animals were euthanized following Animal Euthanasia (AVMA Guidelines) guidelines to ensure humane treatment. Five groups of ICR mice were administered test samples by intraperitoneal injection, and the intact brains were excised and were then frozen for almost 1 h (−20 °C). Brain tissue ([…]) was suspended in sucrose (0.3 M) using a homogenizer (Ultra-Turrax T8; at 60 Hz for almost 70 s) and then subjected to centrifugation for 10 min at 1500 rpm (4 °C). 200 μL of supernatant was collected and centrifuged for 20 min at 15,000 rpm and 4 °C. Subsequently, the formed pellet was resuspended in KHPO4 solution (pH 7.2, 600 μL) and then subjected to 20 min centrifugation at 15,000 rpm and 4 °C. This process was repeated three times. Enzyme activity was determined using an Assay Kit (monoamine oxidase). […] The mice were then sacrificed at intervals ranging from 0.5 to 48 h.[34]

in vitro = assay: in vitro
Description: A fundamental requirement for the effectiveness of anti-AD drugs is their capability to traverse the BBB (blood–brain barrier). […]
Briefly, synthesized compounds were first dissolved in DMSO (10 mM) that was further diluted by the addition of phosphate buffer ([…]) having a pH of 7.4. PBL dissolved in dodecane was used for coating the membranes of the donor plates. Then, the test compound (0.2 mL) was added to the plate, followed by PBS (0.2 mL; pH = 7.4) to the acceptor plate, which was further placed under the donor plate in order to form a “sandwich”. […] A UV plate reader was employed for the measurements of the drug concentration in donor, acceptor, and reference wells. The permeability (Pe) of the compounds was measured by using the following formula. [drawing 2]

BChE = conditions: read-out: BChE enzyme inhibition dissociation constant (Ki value); cited from earlier work

SMILES | IC50 [1] [µM] | IC50 [2] [µM] | SI = IC50 of BChE/IC50 of AChE [2] | IC50 (human MAO-B) [µM] | SI (IC50 hMAO-A/IC50 hMAO-B) (human MAO-B) | IC50 (human MAO-A) [µM] | also measured
O=C1c2ccccc2C(=O)N1C/C=C/CN1CCN(Cc2ccccc2)CC1 [III] | – | – | – | – | – | – | Ki (AChE; read-out: AChE enzyme inhibition dissociation constant (Ki value)): 193 µM
O=C1c2ccccc2C(=O)N1Cc1ccc(-c2ccc3c(c2)OCO3)cc1 [3k] | 80.7 ± 1.54 | 21.1 ± 0.47 | 3.8 and 4 | 0.66 ± 0.03 | 61 | 40.4 ± 1.31 | –
O=C1c2ccccc2C(=O)N1Cc1ccc(-c2ccc(C(F)(F)F)cc2)cc1 [3e] | 6.29 ± 0.17 | 0.24 ± 0.01 | 26 | 0.11 ± 0.01 | 150 | 16.5 ± 0.66 | cytotoxicity on SH-SY5Y cells ([3]; 10, 20, 30, and 50 μM): No cytotoxicity; neurotoxicity on SH-SY5Y cells ([3]; higher concentrations (100 μM)): negligible neurotoxicity; activity of MAO-B recovered (mice brain MAO-B; after 5 h): 50%; activity of MAO-B recovered (mice brain MAO-B; after 24 h): ~95%; Papp at 20 h (in vitro; PAMPA, pH 7.4): 18.7 ± 1.12 ×10⁻⁶ cm/s; prediction of CNS penetration (in vitro; class from PAMPA-BBB Pe): CNS+ ^b (“CNS+” (prediction of high BBB permeation); Pe (10^–6 cm/s) > 4.39)
O=C1c2ccccc2C(=O)N1CCc1cc2ccccc2[nH]1 [IV] | – | – | – | – | – | – | Ki (BChE): 100 µM
O=C1c2ccccc2C(=O)N1Cc1ccc(-c2cccs2)cc1 [3l] | 55.3 ± 1.31 | 0.91 ± 0.02 | 61 | 0.14 ± 0.01 | 59 | 8.29 ± 0.33 | –
O=C1c2ccccc2C(=O)N1Cc1ccc(-c2ccc([N+](=O)[O-])cc2)cc1 [3c] | 49.1 ± 1.39 | 0.94 ± 0.12 | 52 | 0.24 ± 0.01 | 80 | 19.4 ± 1.21 | –
COc1cc(CN2C(=O)c3cc(Cl)c(Cl)cc3C2=O)cc(OC)c1OC [II] | – | – | – | – | – | – | IC50 (AChE; reported in the literature, ref number not given): 0.0135 µM
N#CCc1ccc(-c2ccc(CN3C(=O)c4ccccc4C3=O)cc2)cc1 [3g] | 99.1 ± 1.21 | 13.43 ± 0.08 | 7 | 0.78 ± 0.04 | 7 | 5.44 ± 0.16 | –
